Patent publication US20220081434A1, “DIHYDROISOQUINOLINE COMPOUND” (SUZHOU ARK BIOPHARMACEUTICAL CO., LTD., priority 2019, published 2022)

Each molecule was assayed on hepatitis B surface antigen (HBsAg) (assay: Determination of hepatitis B surface antigen (HBsAg) in HepG2.2.15 cell supernatant). Conditions: Hepatitis B virus, HepG2.2.15, 96 h, read-out: HBsAg inhibitory activity IC50.
Type: cell-based, hepatitis B virus (HepG2.2.15 cells)
Experimental: The full genome of HBV was inserted into an […] cell, which could therefore express HBV continuously (Sells et al, Proc Natl Acad Sci USA. 1987 February; 84 (4):1005-9). The culture condition was DMEM medium containing 10% serum and […] G418. Cells were placed in an incubator containing 5% CO2 and cultured at 37° C.
HepG2.2.15 cells were seeded into a 96-well culture plate at a density of 3×10^4 cells/well. On the next day, the drug dissolved in DMSO was subjected to a 5-fold dilution and then added to the cells. 0.5% DMSO was added separately as control. The supernatant was collected after 4 days of drug action, and the content of hepatitis B surface antigen was determined.
The determination of hepatitis B surface antigen was carried out by using a kit for quantitative determination of hepatitis B virus surface antigen (chemiluminescence method). The specific operations were as follows. 50 μL cell culture supernatant was taken and transferred to the assay plate. 50 μL of enzyme-linked reagent was added thereto and the assay plate was sealed. Incubation was carried out at room temperature for 1 hour. Afterwards, the assay plate was washed six times with PBS, and finally, the residual liquid was removed by shaking the plate. 25 μL of substrates A and B were added respectively, and the determination was conducted by using a microplate reader (Tecan Infinite® F200) after ten minutes of reaction. IC50 was calculated after fitting the dose-response curve.
With `COc1cc2c(cc1-c1cnc(N3CCC(O)CC3)s1)CC(C(C)(C)C)n1cc(C(=O)O)c(=O)cc1-2` (stereo not drawn) [Example 1, 6-tert-butyl-9-[2-(4-hydroxypiperidin-1-yl)thiazol-5-yl]-10-methoxy-2-oxo-6,7-dihydro-2H-pyrido[2,1-a]isoquinoline-3-carboxylic Acid] the IC50 was 0.33 nM. For `COc1cc2c(cc1-c1cnc(N3CCC3)s1)CC(C(C)(C)C)n1cc(C(=O)O)c(=O)cc1-2` (stereo not drawn) [Example 3, 9-[2-(azetidin-1-yl)thiazol-5-yl]-6-tert-butyl-10-methoxy-2-oxo-6,7-dihydro-2H-pyrido[2,1-a]isoquinoline-3-carboxylic Acid], the IC50 was 0.07 nM. Work on `COc1cc2c(cc1-c1cnc(N3CCOCC3)s1)CC(C(C)(C)C)n1cc(C(=O)O)c(=O)cc1-2` (stereo not drawn) [Example 5, 6-tert-butyl-10-methoxy-9-(2-morpholinothiazol-5-yl)-2-oxo-6,7-dihydro-2H-pyrido[2,1-a]isoquinoline-3-carboxylic Acid] yielded an IC50 of 0.3 nM. `COc1cc2c(cc1-c1cnc(N(C)C)s1)CC(C(C)(C)C)n1cc(C(=O)O)c(=O)cc1-2` (stereo not drawn) [Example 6, 6-tert-butyl-9-[2-(dimethylamino)thiazol-5-yl]-10-methoxy-2-oxo-6,7-dihydro-2H-pyrido[2,1-a]isoquinoline-3-carboxylic Acid] showed an IC50 of 0.3 nM. With `COc1cc2c(cc1-c1cnc(N3CCC(OC)CC3)s1)CC(C(C)(C)C)n1cc(C(=O)O)c(=O)cc1-2` (stereo not drawn) [Example 8, 6-tert-butyl-10-methoxy-9-[2-(4-methoxypiperidin-1-yl)thiazol-5-yl]-2-oxo-6,7-dihydro-2H-pyrido[2,1-a]isoquinoline-3-carboxylic Acid] the IC50 was 0.2 nM. `COc1ncc(-c2cc3c(cc2OC)-c2cc(=O)c(C(=O)O)cn2C(C(C)(C)C)C3)s1` (stereo not drawn) [Example 12, 6-tert-butyl-10-methoxy-9-(2-methoxythiazol-5-yl)-2-oxo-6,7-dihydro-2H-pyrido[2,1-a]isoquinoline-3-carboxylic Acid] was tested, and the IC50 was 0.45 nM. `CCOCc1ncc(-c2cc3c(cc2OC)-c2cc(=O)c(C(=O)O)cn2C(C(C)(C)C)C3)s1` (stereo not drawn) [Example 14, 6-tert-butyl-9-[2-(ethoxymethyl)thiazol-5-yl]-10-methoxy-2-oxo-6,7-dihydro-2H-pyrido[2,1-a]isoquinoline-3-carboxylic Acid] gave an IC50 of 0.2 nM. With `COc1cc2c(cc1-c1cnc(C(C)OC)s1)CC(C(C)(C)C)n1cc(C(=O)O)c(=O)cc1-2` (stereo not drawn) [Example 15, 6-tert-butyl-10-methoxy-9-[2-(1-methoxyethyl)thiazol-5-yl]-2-oxo-6,7-dihydro-2H-pyrido[2,1-a]isoquinoline-3-carboxylic Acid] the IC50 was 0.2 nM. Molecule `COc1cc2c(cc1-c1cnc(C(C)(C)OC)s1)CC(C(C)(C)C)n1cc(C(=O)O)c(=O)cc1-2` (stereo not drawn) [Example 17, 6-tert-butyl-10-methoxy-9-[2-(2-methoxypropan-2-yl)thiazol-5-yl]-2-oxo-6,7-dihydro-2H-pyrido[2,1-a]isoquinoline-3-carboxylic Acid] has an IC50 of 0.3 nM. Molecule `CCNC(=O)c1ncc(-c2cc3c(cc2OC)-c2cc(=O)c(C(=O)O)cn2C(C(C)(C)C)C3)s1` (stereo not drawn) [Example 20, 6-tert-butyl-9-[2-(ethylcarbamoyl)thiazol-5-yl]-10-methoxy-2-oxo-6,7-dihydro-2H-pyrido[2,1-a]isoquinoline-3-carboxylic Acid] has an IC50 of 0.3 nM. With `COCCOc1ncc(-c2cc3c(cc2OC)-c2cc(=O)c(C(=O)O)cn2C(C(C)(C)C)C3)s1` (stereo not drawn) [Example 21, 6-tert-butyl-10-methoxy-9-[2-(2-methoxyethoxy)thiazol-5-yl]-2-oxo-6,7-dihydro-2H-pyrido[2,1-a]isoquinoline-3-carboxylic Acid] the IC50 was 0.3 nM. `COCCNC(=O)c1ncc(-c2cc3c(cc2OC)-c2cc(=O)c(C(=O)O)cn2C(C(C)(C)C)C3)s1` (stereo not drawn) [Example 22, 6-tert-butyl-10-methoxy-9-{2-[(2-methoxyethyl)carbamoyl]thiazol-5-yl}-2-oxo-6,7-dihydro-2H-pyrido[2,1-a]isoquinoline-3-carboxylic Acid] gave an IC50 of 0.4 nM.
